What was measured:
multiple sclerosis = settings: cited from earlier work
[1] = tested on: Experimental Autoimmune Encephalomyelitis; settings: various animal species; cited from earlier work
[2] = tested on: LNCs extracted from mice immunized with Poly-YAK (YB106); assay: Ex-vivo potency assay: immunization with Poly-YAK (YB106), in-vitro stimulation of LNCs, IL-2 ELISA; assay type: cell-based, mouse; settings: specificity samples as in-vitro stimulators
Description: The present inventors developed an ex-vivo biological potency assay to determine the relative potency of GA based on effecting the first stimulus by immunizing mice in-vivo with Poly-YAK (also referred to as activation), and the second stimulus by in-vitro stimulation (also referred to as stimulation) with GA. The assay is composed of 6 major steps depicted in FIG. 1.
Briefly, mice are immunized with a pre-determined amount of Poly-YAK (YB106), mixed 1:1 with CFA (step 1). Eight to ten days later, the mice are sacrificed and draining lymph nodes are harvested. Lymph node cells (LNCs) are extracted from the lymph nodes and counted (step 2). […] The Level of IL-2 secretion from the cells into the culture media is determined by a commercial IL-2 ELISA (step 4).
In order to determine the relative potency of a tested batch, IL-2 secretion by the LNCs incubated with the tested batch samples is compared to the IL-2 secretion by the LNCs incubated with RS samples (step 5). Parallelism of the RS and tested batch curves and potency of the tested batch are determined accordingly (step 6). […]
Lymph node cells (LNCs) extraction—The primary culture of LNCs was prepared 8 to 10 days following immunization. […] The cells were then collected in 10-20 ml RPMI or AIM-V complete medium and counted by hemocytometer using Erythrosine B (Sigma, cat no. E9259). […]

L-glutamic acid polymer with L-alanine, L-lysine and L-tyrosine, acetate (salt) [GA]
total number of enhancing lesions as measured by MRI (multiple sclerosis; MS patients, 20 mg/day subcutaneous dose): reduce the total number of enhancing lesions
frequency of relapses (multiple sclerosis; relapsing-remitting MS clinical trials): reduce the frequency of relapses
suppression of EAE [1]: suppress Experimental Autoimmune Encephalomyelitis

MBP peptide (87-99): Myelin Basic Protein peptide 87-99 (BACHEM H-1964), negative control (SRPHLIRLFSRDA; UniProt P02686 87-99, looked up, fragment)
IL-2 secretion response pattern in comparison to RS [2]: did not induce IL-2 secretion response

Reference: patent US20190025285A1, “METHODS OF DETERMINING RELATIVE POTENCY OF GLATIRAMER ACETATE AND USE THEREOF IN PREPARING A BATCH OF GLATIRAMER ACETATE AS ACCEPTABLE FOR PHARMACEUTICAL USE” (InSight Biopharmaceutical Ltd., priority 2015, published 2019)
